According to PubChem BioAssay AID1259371 (The Scripps Research Institute Molecular Screening Center, 2018):
Active and inactive are the calls of the source. How the calls were made is not given here.

Biological target: Microphthalmia-associated transcription factor (Homo sapiens) (UniProt O75030)
Assay: MITF inhibitors, potency by titration, dose response, biochemical, AlphaScreen, human (AID 1259371)
Details: AlphaScreen biochemical MITF assay, signal inhibition

Sequence of Microphthalmia-associated transcription factor (Homo sapiens) (O75030 whole entry, looked up): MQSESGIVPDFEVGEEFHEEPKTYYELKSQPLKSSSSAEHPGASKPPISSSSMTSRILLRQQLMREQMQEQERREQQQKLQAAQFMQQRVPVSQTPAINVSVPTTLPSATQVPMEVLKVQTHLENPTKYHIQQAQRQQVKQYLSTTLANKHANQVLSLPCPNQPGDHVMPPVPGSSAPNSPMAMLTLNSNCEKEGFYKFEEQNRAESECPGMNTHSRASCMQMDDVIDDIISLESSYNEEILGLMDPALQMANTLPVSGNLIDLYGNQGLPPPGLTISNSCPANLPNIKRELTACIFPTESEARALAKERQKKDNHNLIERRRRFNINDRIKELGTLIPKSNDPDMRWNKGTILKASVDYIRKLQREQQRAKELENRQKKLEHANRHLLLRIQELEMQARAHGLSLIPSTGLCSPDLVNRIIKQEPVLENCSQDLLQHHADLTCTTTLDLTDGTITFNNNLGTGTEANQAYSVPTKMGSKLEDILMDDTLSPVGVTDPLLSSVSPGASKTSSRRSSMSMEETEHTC

IC50	Compound
inactive	COC(=O)c1c(NC(=O)c2ccc([N+](=O)[O-])o2)sc(Cc2ccc3c(c2)OCO3)c1C
> 6710 nM (inactive)	O=C(Nc1ccc(Oc2ccccc2)cc1)c1ccnc(-c2cccs2)c1
> 6480 nM (inactive)	COc1ccc2c(c1)CC(c1nc(Nc3ccc4cnccc4c3)c3ccccc3n1)CO2 (centres undefined)
inactive	O=C(O)c1cc(S(=O)(=O)Nc2ccncc2)ccc1O
inactive	COc1ccc2c(c1)CC(C(=O)Nc1ccc(-c3cn[nH]c3)cc1OCC#N)CO2 (centres undefined)
> 6480 nM (inactive)	CCC(C)c1ccccc1OCCNCCN(C)C (centres undefined)
inactive	N#C/C(=C/c1ccco1)c1cccc(F)c1
> 6380 nM (inactive)	O=C(NC1CCN(Cc2ccccc2)CC1)c1ccc2nc(-c3cccs3)sc2c1
394 nM	O=C1N[C@@H](CSCc2ccccc2)C(=O)N2CCN(C(=O)NCc3ccccc3)C[C@H]12
inactive	COc1ccc(C[C@@H]2NC(=O)[C@H]3CN(C(=O)NC4CCCCC4)CCN3C2=O)cc1
inactive	Cc1ccc(-c2nnc3s/c(=C\c4ccco4)c(=O)n23)cc1
> 6480 nM (inactive)	Cc1cc(OCCOCCN2CCNCC2)ccc1Cl
inactive	O=C1Nc2ccc(S(=O)(=O)NCc3ccccc3)cc2C1=O
inactive	COc1ccc(C)cc1NS(=O)(=O)c1ccc2c(c1)CCC(=O)N2
324 nM	N[C@@H](C(=O)N[C@@H]1C(=O)N2C(C(=O)O)=C(CSC3CNNN3)CS[C@H]12)c1ccc(O)cc1 (some centres undefined) (tested in a mixture with another compound)
916 nM	CC(C)(C)OC(=O)N1C(C(=O)O)CSC1c1cc2c(cc1[N+](=O)[O-])OCO2 (centres undefined)
> 6480 nM (inactive)	Nc1cc2c(S(=O)(=O)O)cc(S(=O)(=O)O)cc2cc1S(=O)(=O)O
10.4 nM	O=C(/C=C/c1ccco1)Nc1cccc(NC(=O)/C=C/c2ccco2)n1
inactive	O=C(NC1CCCCC1)N1CCN2C(=O)[C@@H]3CSCN3C(=O)[C@H]2C1
79.7 nM	O=c1[nH]cnc2nc(-c3ccco3)c(-c3ccco3)nc12
inactive	CN1CC[C@H](Oc2cc(-c3cn[nH]c3)ccc2NC(=O)OCc2ccccc2)C1
113 nM	COc1cccc(CC(=O)Nc2nnc(-c3ccco3)c(-c3ccco3)n2)c1
inactive	Cc1ccc(C(=O)N/C(=C/c2ccc([N+](=O)[O-])o2)C(=O)O)cc1
386 nM	N#C/C(=C\c1nn(-c2ccccc2)c(N)c1C#N)c1ccco1
inactive	COC(=O)CN1C(=O)S/C(=C/c2ccc([N+](=O)[O-])o2)C1=O

IC50	Compound
inactive	O=C(NCc1ccccc1)N1CCN2C(=O)[C@H]3CCCN3C(=O)[C@H]2C1
268 nM	O=C(O)c1cc(-n2cccc2)ccc1Cl
inactive	O=C(NC1CCCCC1)N1CCN2C(=O)[C@@H]3C[C@@H](O)CN3C(=O)[C@H]2C1
inactive	CN(CCC#N)C(=O)COC(=O)c1c2c(nc3ccccc13)/C(=C/c1ccco1)CC2
inactive	CCCOc1ccc(N)cc1N
122 nM	O=C(COC(=O)/C=C/c1ccco1)COC(=O)/C=C/c1ccco1
inactive	Nc1ccc(NCCO)c(N)c1
> 6480 nM (inactive)	O=C(/C=C/c1ccco1)Nc1nnc(-c2ccco2)s1
inactive	CSc1ccc(C(=O)O)s1
inactive	COc1ccc2nc(-c3ccco3)c(-c3ccco3)nc2c1
159 nM	CC(=C/C(=O)O)/C=C/c1ccoc1
15.3 nM	Cc1cc2c(c(=O)[nH]1)C(=O)O/C2=C\c1ccco1
> 5360 nM (inactive)	O=S(=O)(N=S(=O)(/C=C/c1ccccc1)c1ccccc1)c1ccccc1 (centres undefined)
467 nM	O=C(NC1CCCCC1)N1CCN2C(=O)[C@H]3CCCN3C(=O)[C@H]2C1
inactive	O=c1c(O)c(-c2ccc(O)cc2O)oc2cc(O)cc(O)c12
inactive	Cc1ccc(COc2ccc(/C=N/N=C3\NC(=O)C(CC(=O)O)S3)cc2)cc1 (centres undefined)
> 6480 nM (inactive)	CN(c1cccc(NS(=O)(=O)c2ccc([N+](=O)[O-])cc2)c1)S(C)(=O)=O
160 nM	O=C(/C=C/c1ccc(-c2cccc(C(F)(F)F)c2)o1)c1ccco1
inactive	O=C(O)C1CC=CCC1C(=O)Nc1nncs1 (centres undefined)
inactive	C[C@@H](O)[C@@H]1NC(=O)[C@H]2CN(C(=O)NC3CCCCC3)CCN2C1=O
953 nM	Cc1c(NC(=O)C(C)OC(=O)c2cc3c(s2)CCC3)c(=O)n(-c2ccccc2)n1C (centres undefined)
479 nM	CC(=O)Oc1ccccc1N1C(=O)c2ccc(Oc3cccc(N)c3)cc2C1=O
inactive	O=c1[nH]cccc1-c1ccc(Nc2nccc(-c3ccc4nc(C5CC5)[nH]c(=O)c4c3)n2)cc1
468 nM	COc1cc(C)c2c(c1C=O)Oc1c(c(C)c(O)c3c1C(O)OC3=O)OC2=O (centres undefined)
> 6180 nM (inactive)	NC(=O)c1ccc2nc(-c3cccs3)sc2c1

IC50	Compound
753 nM	O=[N+]([O-])c1cc(C=Nc2ccc(N3CCOCC3)cc2)c(O)c([N+](=O)[O-])c1
inactive	CC(=O)NS(=O)(=O)c1ccc(NC(=O)c2ccc([N+](=O)[O-])o2)cc1
inactive	C[C@H]1C(=O)N2CCN(C(=O)NC3CCCCC3)C[C@@H]2C(=O)N1C
222 nM	O=C(c1ccc2nc(-c3ccco3)c(-c3ccco3)nc2c1)N1CCSCC1
inactive	Cc1ccc(N[C@@H]2OC[C@@H](O)C(O)C2O)cc1N[C@@H]1OC[C@@H](O)C(O)C1O (some centres undefined)
11.2 nM	Cc1occc1C(=O)N/N=C/C=C/c1ccco1
527 nM	O=C(/C=C/c1ccco1)NC(=S)Nc1ccc(Cl)c(C(=O)O)c1
> 6480 nM (inactive)	C/C=C\C1=C(C(=O)O)N2C(=O)C(NC(=O)C(N)c3ccc(O)cc3)C2SC1 (centres undefined)
85.5 nM	CC(Oc1ccc(O)cc1)(P(=O)(O)O)P(=O)(O)O
inactive	O=C(c1ccc(=O)oc1)N1CCc2ccccc21
> 5540 nM (inactive)	Cc1cccc(CN2CCN(C3CCC(C)CC3)CC2)c1 (centres undefined)
inactive	O=[N+]([O-])c1ccc(N/N=C/c2ccco2)c(S(=O)(=O)N2CCOCC2)c1
314 nM	CC(C)NC(=O)/C(C#N)=C/c1ccc(-c2ccc([N+](=O)[O-])cc2Br)o1
inactive	O=C(/C=C/c1ccco1)NCCCCCCNC(=O)/C=C/c1ccco1
270 nM	CC[C@@H]1NC(=O)[C@H]2CN(C(=O)NC3CCCCC3)CCN2C1=O
20 nM	N#Cc1c(-c2ccco2)cc(-c2ccco2)nc1N
626 nM	O=C(O)c1ccc(-n2cccc2)cc1Cl
inactive	COCCCNC(=O)/C(C#N)=C/c1ccc(OCC(=O)O)c(OC)c1
inactive	Cc1ccc(/C=C/C(=O)NCc2ccccn2)o1
396 nM	O=C(NCCO)c1ccc2nc(-c3ccco3)c(-c3ccco3)nc2c1
inactive	O=C1NC(=O)/C(=C\c2ccc(O)cc2O)S1
inactive	Brc1c(OCCN2CCNCC2)ccc2ccccc12
> 4620 nM (inactive)	O=C1OC(c2cccc([N+](=O)[O-])c2)=N/C1=C\c1ccc(OCc2ccccc2)cc1
inactive	O=C(Nc1ccc(-c2ccncc2)c(C(F)(F)F)c1)C1COc2ccccc2O1 (centres undefined)
> 4840 nM (inactive)	c1cncc(CNc2nc(Nc3ccc(N4CCOCC4)cc3)c3ncn(C4CCCCC4)c3n2)c1

IC50	Compound
inactive	COc1ccc(C)cc1NC(=O)C(NCC(O)c1ccccc1)c1ccccc1 (centres undefined)
inactive	COc1ccc(C[C@@H]2NC(=O)[C@H]3CN(C(=O)NCc4ccccc4)CCN3C2=O)cc1
> 6480 nM (inactive)	COc1cc(C=Nc2ccc(N(C)C)cc2)cc(I)c1O
inactive	NC(=O)COC(=O)/C=C/c1ccc(I)o1
inactive	COc1cc(-c2ccnc(N)n2)ccc1NC(=O)[C@H]1COc2ccccc2O1
> 2370 nM (inactive)	O=C(OC1CCOC1=O)c1ccc(S(=O)(=O)NCc2ccco2)cc1 (centres undefined)
18.7 nM	Nc1ccc(O)c(C(=O)O)c1
> 2160 nM (inactive)	O=C1N[C@@H](Cc2ccc(O)cc2)C(=O)N2CCN(C(=O)NCc3ccccc3)C[C@H]12
5.3 nM	S=c1[nH]nc(-c2ccco2)n1/N=C/C=C/c1ccco1
> 2160 nM (inactive)	CC(C)C[C@H]1C(=O)N2CCN(C(=O)NC3CCCCC3)C[C@@H]2C(=O)N1C
3.85 nM	N#CC1=C(N)n2c(s/c(=C\c3ccco3)c2=O)=C(C#N)C1c1ccco1 (centres undefined)
inactive	COc1ccc2c3c(cccc13)C(=O)N(C)C2=O
inactive	O=C1O[C@H](C(O)CO)C(O)=C1O (some centres undefined)
inactive	O=C(COC(=O)c1cc(-c2ccco2)nc2ccccc12)NC1CC1
408 nM	O=C(O)c1cc(NN=C2CCCC2)ccc1Cl
inactive	C[C@H](O)[C@H]1NC(=O)[C@H]2CN(C(=O)NCc3ccccc3)CCN2C1=O
> 7320 nM (inactive)	NC(=O)c1ccc(-c2cccs2)s1
inactive	Cc1cccc(N2CCN(C(=O)/C=C\C(=O)O)CC2)c1C
986 nM	O=C(Nc1ccc(C(=O)Nc2ccc(C(=O)Nc3ccc(S(=O)(=O)O)c4cc(S(=O)(=O)O)cc(S(=O)(=O)O)c34)cc2)cc1)Nc1ccc(C(=O)Nc2ccc(C(=O)Nc3ccc(S(=O)(=O)O)c4cc(S(=O)(=O)O)cc(S(=O)(=O)O)c34)cc2)cc1
inactive	O=C(CCCCC1SCC2NC(=O)NC21)NC1(c2ccc(F)cc2)CCCC1 (centres undefined)
425 nM	CN(C)[C@@H]1C(=O)C(C(=O)NCN2CCCC2)=C(O)[C@@]2(O)C(=O)C3=C(O)c4c(O)cccc4[C@@](C)(O)[C@H]3C[C@@H]12
> 6480 nM (inactive)	O=C1N[C@@H](Cc2ccccc2)C(=O)N2CCN(C(=O)NCc3ccccc3)C[C@H]12
inactive	O=C(O)c1cc(S(=O)(=O)Nc2ccc(-n3cnnn3)cc2)ccc1O
inactive	Cn1c(SCc2cc(=O)n3c(n2)sc2ccccc23)nnc1C(F)(F)F
284 nM	O=c1[nH]c(/C=C/c2ccco2)nc(O)c1[N+](=O)[O-]

Compound	IC50
CN(N=O)c1cc(O)ccc1O	98.7 nM
CCOc1cccc(OCC)c2c(C)[n+](C)c(C)c1-2	58.2 nM
CCOC(=O)C1C2NC(=S)N(c3ccc(C)cc3)C1(C)Oc1c(OCC)cccc12 (centres undefined)	> 4890 nM (inactive)
CCOc1cccc(OCC)c2c(C)nc(C)c1-2	207 nM
